Results reported in ChEMBL document CHEMBL3297661, “1-Substituted-5-[(3,5-dinitrobenzyl)sulfanyl]-1H-tetrazoles and their isosteric analogs: A new class of selective antitubercular agents active against drug-susceptible and multidrug-resistant mycobacteria” (Eur J Med Chem, 2014).

Columns and labels:
[1] = test system: Aspergillus fumigatus; assay: Antifungal activity against Aspergillus fumigatus 231 after 24 hrs by broth microdilution method; type: functional, organism-based; conditions: Aspergillus fumigatus, 231, 24 h
[2] = test system: Trichophyton mentagrophytes; assay: Antifungal activity against Trichophyton mentagrophytes 445 after 72 hrs by broth microdilution method; type: functional, organism-based; conditions: Trichophyton mentagrophytes, 445, 72 h
[3] = test system: Candida tropicalis; assay: Antifungal activity against Candida tropicalis 156 after 24 hrs by broth microdilution method; type: functional; conditions: Candida tropicalis, 156, 24 h
[4] = test system: Nakaseomyces glabratus; assay: Antifungal activity against Candida glabrata 20/I after 24 hrs by broth microdilution method; type: functional
[5] = test system: Lichtheimia corymbifera; assay: Antifungal activity against Absidia corymbifera 272 after 24 hrs by broth microdilution method; type: functional, organism-based; conditions: Lichtheimia corymbifera, 272, 24 h
[6] = test system: Trichosporon asahii; assay: Antifungal activity against Trichosporon asahii 1188 after 24 hrs by broth microdilution method; type: functional; conditions: Trichosporon asahii, 1188, 24 h
[7] = test system: Pichia kudriavzevii; assay: Antifungal activity against Candida krusei E28 after 24 hrs by broth microdilution method; type: functional; conditions: E28, 24 h
[8] = test system: Candida albicans; assay: Antifungal activity against Candida albicans ATCC 44859 after 24 hrs by broth microdilution method; type: functional; conditions: ATCC 44859, 24 h

## C[C@@H]1[C@H](O)[C@@H](C)/C=C/C=C/C=C/C=C/C=C/C=C/C=C/[C@H](O[C@@H]2O[C@H](C)[C@@H](O)[C@H](N)[C@@H]2O)C[C@@H]2O[C@](O)(C[C@@H](O)C[C@@H](O)[C@H](O)CC[C@@H](O)C[C@@H](O)CC(=O)O[C@H]1C)C[C@H](O)[C@H]2C(=O)O [AMPHOTERICIN B]
[1]
  IC50: 540 nM
[2]
  IC50: 540 nM
[3]
  IC80: 540 nM
[4]
  IC80: 540 nM
[5]
  IC50: 1000 nM
[6]
  IC80: 270 nM
[7]
  IC80: 1000 nM
[8]
  IC80: 540 nM
